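How tested: cells in 96-well plates exposed to compound for 48 hours at five concentrations. GI50 is the concentration that inhibits growth by half. TGI denotes the concentration required for complete inhibition of growth.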
Tests used:
Test in all cases: NCI-60 cell line screen, 48 h
[1] = test system: NCI-H23 lung
[2] = test system: RXF 393 renal
[3] = test system: M14 melanoma
[4] = test system: HL-60(TB) leukemia
[5] = test system: 786-0 renal
[6] = test system: SK-MEL-5 melanoma
[7] = test system: MDA-MB-231 breast
[8] = test system: HCT-116 colon
[9] = test system: K-562 leukemia
[10] = test system: BT-549 breast
[11] = test system: NCI-H460 lung
[12] = test system: KM12 colon
[13] = test system: SF-295 CNS
[14] = test system: SNB-19 CNS
[15] = test system: MOLT-4 leukemia
[16] = test system: SK-MEL-28 melanoma
[17] = test system: NCI/ADR-RES ovarian
[18] = test system: OVCAR-5 ovarian
[19] = test system: A549 NSCLC
[20] = test system: HOP-62 NSCLC
[21] = test system: ACHN renal
[22] = test system: HS 578T breast
[23] = test system: OVCAR-8 ovarian
[24] = test system: MDA-MB-435
[25] = test system: SNB-75 CNS
[26] = test system: MALME-3M melanoma
[27] = test system: HCT-15 colon
[28] = test system: UACC-62 melanoma
[29] = test system: OVCAR-3 ovarian

Work on `CN(c1ccc(Cl)c(Cl)c1)c1cnc2cc(N)cc(N)c2n1` yielded a GI50 [1] of 2.11 µM, a TGI [1] of 4.47 µM and a GI50 [2] of 4.19 µM. It also gave a TGI [2] of 40.3 µM, a GI50 [3] of 1.91 µM and a TGI [3] of 3.44 µM. The GI50 [4] was 2.26 µM, the TGI [4] was 7.56 µM and the GI50 [5] was 12.7 µM. For the same molecule, the TGI [5] was 26 µM, the GI50 [6] was 1.96 µM and the TGI [6] was 3.71 µM. For the same molecule, the GI50 [7] was 3.37 µM, the TGI [7] was 15.4 µM and the GI50 [8] was 2.31 µM. It also gave a TGI [8] of 4.9 µM, a GI50 [9] of 4.21 µM and a TGI [9] of over 100 µM. For the same molecule, the GI50 [10] was 2.73 µM, the TGI [10] was 6.56 µM and the GI50 [11] was 14.2 µM. The TGI [11] was 52.1 µM, the GI50 [12] was 7.2 µM and the TGI [12] was 25.8 µM. For the same molecule, the GI50 [13] was 3.58 µM, the TGI [13] was 12.4 µM and the GI50 [14] was 3.75 µM. The TGI [14] was 15.1 µM, the GI50 [15] was 3.81 µM and the TGI [15] was over 100 µM. For the same molecule, the GI50 [16] was 2.98 µM, the TGI [16] was 8.06 µM and the GI50 [17] was 10.6 µM. For the same molecule, the TGI [17] was 30.1 µM, the GI50 [18] was 15.7 µM and the TGI [18] was 30.5 µM. It also gave a GI50 [19] of 13.7 µM, a TGI [19] of 45.4 µM and a GI50 [20] of 2.91 µM. It also gave a TGI [20] of 8.07 µM, a GI50 [21] of 4.64 µM and a TGI [21] of 16 µM. It also gave a GI50 [22] of 2.66 µM, a TGI [22] of 7.36 µM and a GI50 [23] of 3.48 µM. It also gave a TGI [23] of 15.4 µM, a GI50 [24] of 1.91 µM and a TGI [24] of 3.99 µM. For the same molecule, the GI50 [25] was 3.34 µM, the TGI [25] was 9.57 µM and the GI50 [26] was 2.19 µM. It also gave a TGI [26] of 4.28 µM, a GI50 [27] of 4.57 µM and a TGI [27] of 20.1 µM. For the same molecule, the GI50 [28] was 2.25 µM, the TGI [28] was 4.43 µM and the GI50 [29] was 2.36 µM.
